From patent publication US12655116B2, “Substituted isophthalic acid diamides” (Bayer Aktiengesellschaft, priority 2020, dated 2026)

Legend:
MATIN [1] = assay: Post-emergence herbicidal action against MATIN; format: in vivo, Matricaria inodora
In short: (§1)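 Greenhouse pot plants in sandy loam were sprayed at the one-leaf stage, 2 to 3 weeks after sowing, with WP or EC formulations as aqueous suspension or emulsion (600 to 800 l/ha water, 0.2% wetting agent). About 3 weeks later, damage was scored visually against untreated controls as % action (100% = dead, 0% = like control).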

ECHCG [2] = assay: Post-emergence herbicidal action against ECHCG; format: in vivo, Echinochloa crus-galli
In short: as §1

PHBPU [3] = assay: Pre-emergence herbicidal action against PHBPU; format: in vivo, Pharbitis purpurea
In short: (§2)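 Visual rating at 3 weeks vs untreated pots; 0–100% scale, 100% = plants died. Treatment: aqueous WP/EC spray onto covering soil, 600–800 l/ha, 0.2% wetter, seeds in sandy loam.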

SETVI [4] = assay: Post-emergence herbicidal action against SETVI; format: in vivo, Setaria viridis
In short: as §1

VIOTR [5] = assay: Pre-emergence herbicidal action against VIOTR; format: in vivo, Viola tricolor
In short: as §2

ABUTH [6] = assay: Pre-emergence herbicidal action against ABUTH; format: in vivo, Abutilon theophrasti; conditions: for Pre-emergence action against ABUTH (herbicidal activity): 80 g/ha, scored visually after 3 weeks vs untreated controls (100% = plants have died, 0% = like control plants); for Pre-emergence action against ABUTH (herbicidal activity in percent): dosage 20 g/ha, scored visually after 3 weeks vs untreated controls, 100% = plants have died, 0% = like control plants
In short: as §2

ECHCG [7] = assay: Pre-emergence herbicidal action against ECHCG; format: in vivo, Echinochloa crus-galli
In short: as §2

AVEFA [8] = assay: Post-emergence herbicidal action against AVEFA; format: in vivo, Avena fatua; conditions: 20 g/ha, visual assessment about 3 weeks after treatment, 100% = plants have died, 0% = like control plants
In short: as §1

POLCO = assay: Pre-emergence herbicidal action against POLCO; format: in vivo, Polygonum convolvulus; conditions: dosage 80 g/ha
In short: as §2

MATIN [9] = assay: Pre-emergence herbicidal action against MATIN; format: in vivo, Matricaria inodora
In short: as §2

VIOTR [10] = assay: Post-emergence herbicidal action against VIOTR; format: in vivo, Viola tricolor
In short: as §1

ALOMY [11] = assay: Post-emergence herbicidal action against ALOMY; format: in vivo, Alopecurus myosuroides; conditions: dosage 20 g/ha, visual assessment about 3 weeks after treatment vs untreated controls
In short: as §1

AMARE [12] = assay: Pre-emergence herbicidal action against AMARE; format: in vivo, Amaranthus retroflexus
In short: as §2

ABUTH [13] = assay: Post-emergence herbicidal action against ABUTH; format: in vivo, Abutilon theophrasti; conditions: visual assessment about 3 weeks after treatment vs untreated controls
In short: as §1

VERPE [14] = assay: Pre-emergence herbicidal action against VERPE; format: in vivo, Veronica persica
In short: as §2

VERPE [15] = assay: Post-emergence herbicidal action against VERPE; format: in vivo, Veronica persica; conditions: 20 g/ha
In short: as §1

DIGSA [16] = assay: Post-emergence herbicidal action against DIGSA; format: in vivo, Digitaria sanguinalis; conditions: for Post-emergence action against DIGSA in %: 5 g/ha; for Post-emergence action against DIGSA: 20 g/ha
In short: as §1

DIGSA [17] = assay: Pre-emergence herbicidal action against DIGSA; format: in vivo, Digitaria sanguinalis
In short: as §2

AVEFA [18] = assay: Pre-emergence herbicidal action against AVEFA; format: in vivo, Avena fatua; conditions: 80 g/ha, pre-emergence
In short: as §2

SETVI [19] = assay: Pre-emergence herbicidal action against SETVI; format: in vivo, Setaria viridis
In short: as §2

AMARE [20] = assay: Post-emergence herbicidal action against AMARE; format: in vivo, Amaranthus retroflexus; conditions: 20 g/ha, visual assessment about 3 weeks after treatment, 100% = plants have died, 0% = like control plants
In short: as §1

ALOMY [21] = assay: Pre-emergence herbicidal action against ALOMY; format: in vivo, Alopecurus myosuroides; conditions: 80 g/ha, pre-emergence, scored visually after 3 weeks vs untreated controls (100% = plants have died, 0% = like control plants)
In short: as §2

PHBPU [22] = assay: Post-emergence herbicidal action against PHBPU; format: in vivo, Pharbitis purpurea
In short: as §1

STEME = assay: Post-emergence herbicidal action against STEME; format: in vivo, Stellaria media; conditions: 20 g/ha
Experimental: Seeds of monocotyledonous and dicotyledonous weed and crop plants are laid out in sandy loam soil in wood-fiber pots, covered with soil and cultivated in a greenhouse under good growth conditions. 2 to 3 weeks after sowing, the test plants are treated at the one-leaf stage. The compounds of the invention, formulated in the form of wettable powders (WP) or as emulsion concentrates (EC), are then sprayed onto the green parts of the plants in the form of an aqueous suspension or emulsion at a water application rate equivalent to 600 to 800 l/ha, with addition of 0.2% wetting agent. After the test plants have been left to stand in the greenhouse under optimal growth conditions for about 3 weeks, the action of the preparations is assessed visually in comparison to untreated controls (herbicidal action in percent (%): 100% activity=the plants have died, 0% activity=like control plants). […] The tables below illustrate, in an illustrative manner, the post-emergence herbicidal action of the compounds of the invention, the herbicidal activity being stated in percent.

[23] = 20 g/ha, scored visually after 3 weeks vs untreated controls, 100% = plants have died, 0% = like control plants
[24] = 80 g/ha, scored visually after 3 weeks vs untreated controls (100% = plants have died, 0% = like control plants)

| SMILES | Post-emergence action against MATIN in % (MATIN [1]; dosage 5 g/ha) | Post-emergence action against MATIN in % (MATIN [1]; dosage 20 g/ha) | Post-emergence action against ECHCG in % (ECHCG [2]; dosage 5 g/ha) | Post-emergence action against ECHCG in % (ECHCG [2]; dosage 20 g/ha) | Pre-emergence action against PHBPU in % (PHBPU [3]; dosage 80 g/ha) | Post-emergence action against SETVI in % (SETVI [4]; dosage 20 g/ha) | Pre-emergence action against VIOTR in % (VIOTR [5]; dosage 20 g/ha) | Pre-emergence action against VIOTR in % (VIOTR [5]; dosage 80 g/ha) | Pre-emergence action against ABUTH (herbicidal activity) (ABUTH [6]) | Pre-emergence action against ABUTH (herbicidal activity in percent) (ABUTH [6]) | Pre-emergence action against ECHCG in % (ECHCG [7]; 80 g/ha) | Pre-emergence action against MATIN in % (MATIN [9]; dosage 20 g/ha) | Pre-emergence action against MATIN in % (MATIN [9]; dosage 80 g/ha) | Pre-emergence action against AMARE in % (AMARE [12]; [23]) | Pre-emergence action against AMARE in % (AMARE [12]; [24]) | Post-emergence action against ABUTH in % (ABUTH [13]; dosage 20 g/ha) | Pre-emergence action against DIGSA in % (DIGSA [17]; dosage 20 g/ha) | Pre-emergence action against DIGSA in % (DIGSA [17]; dosage 80 g/ha) | Pre-emergence action against SETVI in % (SETVI [19]; dosage 80 g/ha) | Post-emergence action at 20 g/ha against AMARE in % (AMARE [20]) | further results |
| --- | --- | --- | --- | --- | --- | --- | --- | --- | --- | --- | --- | --- | --- | --- | --- | --- | --- | --- | --- | --- | --- |
| CCn1nnnc1NC(=O)c1ccc(C(F)(F)F)c(C(=O)NC(C)C2CC2)c1C1CC1 (stereo not shown) [Example 2-292] | 80% | 90% | 80% | 80% | 90% | 80% | 100% | 100% | 100% | 100% | 100% | 90% | 100% | 100% | 100% | 80% | 100% | 100% | 100% | 90% | Pre-emergence action against PHBPU in % (PHBPU [3]; dosage 20 g/ha): 80%; Post-emergence action at 20 g/ha against AVEFA in % (AVEFA [8]): 80%; Pre-emergence action against POLCO in % (POLCO): 100%; Post-emergence action against VIOTR in % (VIOTR [10]; 20 g/ha): 80%; Post-emergence action against ALOMY in % (ALOMY [11]): 80%; Pre-emergence action against VERPE in % (VERPE [14]; dosage 20 g/ha): 90%; Pre-emergence action against VERPE in % (VERPE [14]; dosage 80 g/ha): 100%; Post-emergence action against VERPE in % (VERPE [15]): 80%; Post-emergence action against DIGSA in % (DIGSA [16]): 90%; Post-emergence action against DIGSA (DIGSA [16]): 90%; Pre-emergence action against AVEFA in % (AVEFA [18]): 90%; Pre-emergence action against ALOMY (herbicidal activity) (ALOMY [21]): 90% |
| CCNC(=O)c1c(C(F)(F)F)ccc(C(=O)Nc2nnnn2CC)c1OC [Example 2-57] | 80% | 90% | 100% | 100% | 80% | 100% | 100% | 100% | 100% | 100% | 100% | 90% | 100% | 100% | 100% | 100% | 100% | 100% | 100% | 100% | Post-emergence action against SETVI in % (SETVI [4]; dosage 5 g/ha): 100%; Pre-emergence action against ECHCG in % (ECHCG [7]; 20 g/ha): 90%; Post-emergence action at 20 g/ha against AVEFA in % (AVEFA [8]): 80%; Pre-emergence action against POLCO in % (POLCO): 90%; Post-emergence action against VIOTR in % (VIOTR [10]; 5 g/ha): 90%; Post-emergence action against VIOTR in % (VIOTR [10]; 20 g/ha): 100%; Post-emergence action against PHBPU in % (PHBPU [22]; dosage 5 g/ha): 80%; Post-emergence action against PHBPU in % (PHBPU [22]; dosage 20 g/ha): 90%; Post-emergence action against ALOMY in % (ALOMY [11]): 90%; Post-emergence action against ABUTH in % (ABUTH [13]; dosage 5 g/ha): 90%; Pre-emergence action against VERPE in % (VERPE [14]; dosage 80 g/ha): 90%; Post-emergence action against VERPE in % (VERPE [15]): 90%; Post-emergence action against DIGSA in % (DIGSA [16]): 90%; Post-emergence action against DIGSA (DIGSA [16]): 100%; Pre-emergence action against AVEFA in % (AVEFA [18]): 90%; Pre-emergence action against SETVI in % (SETVI [19]; dosage 20 g/ha): 80%; Pre-emergence action against ALOMY (herbicidal activity) (ALOMY [21]): 90% |
| Cc1nnc(NC(=O)c2ccc(C(F)F)c(C(=O)NC3CC3)c2C)o1 [Example 6-33] | – | – | – | 80% | – | 80% | – | 100% | 90% | – | 100% | 80% | 90% | 90% | 100% | 80% | 80% | 100% | 100% | 90% | Post-emergence action against SETVI in % (SETVI [4]; dosage 5 g/ha): 80%; Post-emergence action against STEME in % (STEME): 80% |
